Results from patent publication US20220305092A1, “MEDICAMENT AND FOOD FOR PREVENTING OR TREATING NOVEL CORONAVIRUS PNEUMONIA COVID-19 AND USE THEREOF” (GUANGZHOU CENTURY CLINICAL RESEARCH CO., LTD, priority 2020, published 2022).

Experiments:
COVID-19 virus = assay: Inhibition of cytopathic effect caused by COVID-19 virus in VeroE6 cells; format: cell-based; settings: for inhibition of the cytopathic effect caused by the COVID-19 virus (in words): Example 2, VeroE6 cells
Claudin-1 protein = assay: Claudin-1 mRNA expression in jejunum tissue of lipopolysaccharide-treated mice (quantitative PCR); format: in vivo, mouse; settings: 100 mg/kg, model 0.73, blank 1.07
Procedure: (§1) Animal grouping and administration: The animals were randomly divided into a blank group, a model group, a lysozyme group (100 mg/kg), lysozyme+monoammonium glycyrrhizinate group A (100 mg/kg+2 mg/kg), lysozyme+monoammonium glycyrrhizinate group B (100 mg/kg+10 mg/kg), lysozyme+monoammonium glycyrrhizinate group C (100 mg/kg+20 mg/kg), and a lysozyme+dipotassium glycyrrhizinate group (100 mg/kg+2 mg/kg), with eight animals in each group. Each drug group was administered intragastrically by each dose of drugs every day, while the blank group and the model group were administered with normal saline. The administration was performed for 30 consecutive days.
(§2) Model establishment: After administration, the animals of each group except the blank group were intraperitoneally injected with 15 mg/kg of lipopolysaccharides, and the blank group was injected with normal saline. The animals were fasted for 12 hours after injection.
(§3) Determination of expression of tight junction proteins in intestinal tissue: After the animals were sacrificed, jejunum tissue samples were taken for RNA extraction, the relative expression levels of occludin protein and Claudin-1 protein in the tissues were detected by quantitative PCR and the results were shown in Table 6.

[1] = tested on: guinea pigs which had inhaled smoke; assay: Airway resistance and lung function of guinea pigs which had inhaled smoke; format: in vivo, guinea pig
Procedure: The smoke-induced model was a classic animal model for chronic obstructive pulmonary disease. After inhaling smoke for a long period of time, animals could suffer from increased mucus secretion, airway obstruction, lung function decline, etc. The effect of the lysozyme on airway obstruction was evaluated by means of the model establishment method in the present experiment.
Lysozyme, monoammonium glycyrrhizinate, and monopotassium glycyrrhizinate.
Male Hartley guinea pigs, weighing 400 to 500 g, were randomly divided into a blank group, a model group, a lysozyme oral administration group (200 mg/kg), a lysozyme inhalation group (2 mg/kg), lysozyme+monoammonium glycyrrhizinate inhalation group (2 mg/kg+0.1 mg/kg), lysozyme+monopotassium glycyrrhizinate oral administration group I (200 mg/kg+20 mg/kg), and lysozyme+monopotassium glycyrrhizinate oral administration group II (200 mg/kg+40 mg/kg), with eight animals in each group.
The animals in each group except the blank group were exposed to cigarette smoke by using a smoke exposure system for oro-nasal inhalation only, such that the animals inhaled smoke of five cigarettes within 40 minutes per day, for 5 exposure days per week, for 12 consecutive weeks.
The lysozyme and monoammonium glycyrrhizinate used for inhalation administration were respectively crushed into powders with a particle size of less than 10 μm. The lysozyme and monopotassium glycyrrhizinate used for oral administration were respectively dissolved in normal saline.
The animals in each group except the blank group and the model group were administered once a day for 4 consecutive weeks from the 8th week after the model establishment began. The inhalation administration groups were administered by means of an oro-nasal inhalation exposure system, while the oral administration groups were administered intragastrically. Animals in the blank group and the model group were administered intragastrically with normal saline per day.
Airway resistance measurement and 100 ms (millisecond) expiratory volume measurement were performed after administration.
The animals were placed in a double chamber plethysmography system, and after the animals were left in a tranquil state for 10 minutes, the specific airway resistance (sRaw) was measured. The animals were anesthetized by intramuscular injection of ketamine, then a catheter was then inserted into the trachea, and the forced expiratory volume in 100 ms (FEV 100) of the animals was measured through a lung function testing system.

occludin protein = assay: Occludin mRNA expression in jejunum tissue of lipopolysaccharide-treated mice (quantitative PCR); format: in vivo, mouse; settings: 100 mg/kg, model 0.54, blank 1.04
Procedure: as §1, §2, §3

[2] = tested on: lipopolysaccharide-induced intestinal barrier dysfunction in mice; assay: Intestinal permeability (serum FITC-glucan) in lipopolysaccharide-induced intestinal barrier dysfunction in mice; format: in vivo, mouse; settings: 100 mg/kg intragastrically, 30 days, model 35.06, blank 9.40
Excerpt: Lipopolysaccharides could cause impaired intestinal function in animals. The protective effect of lysozyme and lysozyme combinations against lipopolysaccharide-induced intestinal barrier dysfunction in mice were studied in the present experiment.
Test drugs: lysozyme, monoammonium glycyrrhizinate, and dipotassium glycyrrhizinate.
Test animals: clean-grade male C57BL/6 mice, weighing 20 to 25 g.
as §1, with “Each drug group was administered intragastrically by each dose of drugs every day, while the blank group and the model group were administered with normal saline. The administration was performed for 30 consecutive days.” left out
Determination of intestinal permeability: The animals of each group were administered intragastrically with 600 mg/kg of FITC-glucan (dissolved in a phosphate buffer), and after 4 hours, blood was taken from eyeballs. The content of the FITC-glucan in the serum was measured by means of fluorescence spectrometry (with an excitation wavelength of 480 nm and an emission wavelength of 520 nm), and the results were shown in Table 5.

[3] = inhalation, 2 mg/kg once a day for 4 weeks

Compound	Inhibition rate (%) (COVID-19 virus; 1000 μg/ml, VeroE6 cells, 100 TCID50, 4 days)	Inhibition rate (%) (COVID-19 virus; 2000 μg/ml, VeroE6 cells, 100 TCID50, 4 days)	inhibition of the cytopathic effect caused by the COVID-19 virus (in words) (COVID-19 virus)	Relative expression quantity of Claudin-1 mRNA (Claudin-1 protein)	100 ms expiratory volume [1, 3] [mL]	Airway resistance (cmH2O · s) [1, 3] [cmH2O · s]	100 ms expiratory volume ([1]; oral administration, 200 mg/kg once a day for 4 weeks, model 4.18, blank 11.86) [mL]	Airway resistance (cmH2O · s) ([1]; oral administration, 200 mg/kg once a day for 4 weeks, model 4.72, blank 1.43)	Inhibition rate (%) (COVID-19 virus; 350 μg/ml, Example 3)	Relative expression quantity of Occludin mRNA (occludin protein)	Content of FITC-glucan [2] [µg/mL]
CC1(C)[C@@H](O[C@H]2O[C@H](C(=O)O)[C@@H](O)[C@H](O)[C@H]2O[C@@H]2O[C@H](C(=O)O)[C@@H](O)[C@H](O)[C@H]2O)CC[C@]2(C)[C@H]3C(=O)C=C4[C@@H]5C[C@@](C)(C(=O)O)CC[C@]5(C)CC[C@@]4(C)[C@]3(C)CC[C@@H]12.N [Monoammonium glycyrrhizinate, monoammonium glycyrrhizinate]	23.35 ± 5.43	29.42 ± 7.16	relatively weak inhibition effect	–	–	–	–	–	–	–	–
lysozyme	–	–	significantly inhibited	0.79 ± 0.16	7.68 ± 1.36	3.10 ± 0.14	5.79 ± 2.03	3.79 ± 0.30	6.67 ± 1.56	0.69 ± 0.07	27.53 ± 3.21
